What was measured:
L6-myotubes [1] = test: Measurement of intracellular cAMP levels in differentiated L6-myotubes (Biological Example 3); assay type: cell-based; conditions: for Emax at 10 µM: 0.25 h
Summary of the method: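 Intracellular cAMP quantified by AlphaScreen after ethanol extraction and lysis of L6 myotubes. Cells were serum-starved overnight, then exposed for 15 min to compound (final 1×10^−5 M) or isoprenaline in IBMX-containing (1 mM) HBSS buffer, pH 7.4.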

L6-myotubes [2] = test: Glucose uptake in differentiated L6-myotubes (Biological Example 2); assay type: cell-based; conditions: for Emax at 10 µM: read-out: Biological example 2 (GU)
Summary of the method: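 Uptake was quantified as radioactivity in 0.2 M NaOH lysates after a 10 min pulse of 50 nM ^3H-2-deoxyglucose. The pulse followed two agonist exposures at 1×10^−5 M final (isoprenaline or test compound): 1 h 40 min, then 20 min in glucose-free medium after washing. L6 myotubes had been starved overnight in medium with 0.5% fatty-acid-free BSA.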

[3] = intracellular cAMP, compound at 10 μM relative to isoproterenol at 10 μM
[4] = glucose uptake, compound at 10 μM relative to isoproterenol at 10 μM
[5] = intracellular cAMP in differentiated L6-myotubes, compound at 10 μM, activity relative to isoproterenol at 10 μM
[6] = glucose uptake in differentiated L6-myotubes, compound at 10 μM, activity relative to isoproterenol at 10 μM

| SMILES | Emax at 10 µM (L6-myotubes [1]; [3]) [%] | Emax at 10 µM (L6-myotubes [2]; [4]) [%] | Emax at 10 µM (L6-myotubes [1]; [5]) [%] | Emax at 10 µM (L6-myotubes [2]; [6]) [%] | further results |
| --- | --- | --- | --- | --- | --- |
| CC1(C)CC[C@@H]([C@@H](O)c2cccc(F)c2)N1 [Compound 145, (S)-[(S)-5,5-dimethyl-2-pyrrolidinyl](m-fluorophenyl)methanol] | < 25 | 25 to 50 |  |  |  |
| CCC[C@H](C)NC[C@H](O)c1ccc(F)cc1 [Compound 53, (R)-2-[(S)-1-methylbutylamino]-1-(p-fluorophenyl)-1-ethanol] | < 25 | 50 to 75 |  |  |  |
| CO[C@H]1CC[C@@H](C(C)(C)NC[C@H](O)c2cncc(F)c2)CC1 [Compound 252, (R)-1-(5-fluoro-3-pyridyl)-2-{1-methyl-1-[(1s,4S)-4-methoxycyclohexyl]ethylamino}-1-ethanol] |  |  | < 25 | < 25 |  |
| O[C@H](c1cccc(F)c1)C12CCC(COCc3ccc(Cl)cc3)(CC1)N2 [Compound 396, (R)-(4-{[(p-chlorophenyl)methoxy]methyl}-7-azabicyclo[[2.2.1]]hept-1-yl)(m-fluorophenyl)methanol] |  |  | < 25 | > 75 |  |
| O[C@H](c1cncc(F)c1)[C@H]1CC[C@H](Cc2ccc(Cl)cc2)N1 [Compound 406, (R)-{(2R,5R)-5-[(p-chlorophenyl)methyl]-2-pyrrolidinyl}(5-fluoro-3-pyridyl)methanol] |  |  | < 25 | > 75 |  |
| CC(C)(NC[C@H](O)c1cccc(F)c1)[C@H]1CC[C@H](N)CC1 [Compound 381] |  |  | < 25 | 50 to 75 |  |
| CCC[C@@H]1CCC[C@H]([C@@H](O)c2cccc(O)c2)N1 [Compound 137, (S)-[(2R,6R)-6-propyl-2-piperidyl](m-hydroxyphenyl)methanol] | < 25 | 25 to 50 |  |  |  |
| CC(C)(C)NC[C@H](O)c1ccc(F)c(N)c1F [Compound 149, (R)-1-(3-amino-2,4-difluorophenyl)-2-(tert-butylamino)-1-ethanol] | 25 to 50 | > 75 |  |  |  |
| O[C@H](c1cccc(F)c1)C12CCC(Cc3ccc(OC(F)(F)F)cc3)(CC1)N2 [Compound 500, (S)-(m-fluorophenyl){4-[(p-trifluoromethoxyphenyl)methyl]-7-azabicyclo[[2.2.1]]hept-1-yl}methanol] |  |  | < 25 | < 25 |  |
| CO[C@H]1CC[C@H](C[C@@H]2CC[C@H]([C@H](O)c3ccccc3F)N2)CC1 [Compound 337, (R)-[(2R,5S)-5-{[(1r,4S)-4-methoxycyclohexyl]methyl}-2-pyrrolidinyl] (o-fluorophenyl)methanol] |  |  | < 25 | > 75 |  |
| CC1(C)CCC[C@H]([C@@H](O)c2ccccc2F)N1 [Compound 176, (S)-[(R)-6,6-dimethyl-2-piperidyl](o-fluorophenyl)methanol] | 25 to 50 | > 75 |  |  |  |
| CC(C)(C[C@H]1CC[C@H](NS(=O)(=O)C2CC2)CC1)NC[C@H](O)c1cccc(F)c1 [Compound 496] |  |  | < 25 | 50 to 75 |  |
| CCS(=O)(=O)N[C@H]1CC[C@H](CC(C)(C)NC[C@H](O)c2cncc(F)c2)CC1 [Compound 525, (R)-2-{1,1-dimethyl-2-[(1r,4R)-4-(ethylsulfonylamino)cyclohexyl]ethylamino}-1-(5-fluoro-3-pyridyl)-1-ethanol] |  |  | < 25 | 50 to 75 |  |
| O=C(N[C@H]1CC[C@H](CNC[C@H](O)c2cncc(F)c2)CC1)c1ccccc1 [Compound 317] |  |  | < 25 | 50 to 75 |  |
| Oc1ccc(C(O)CNCC2CCCCC2)cc1 (stereo not shown) [Compound 6, 2-[(cyclohexylmethyl)amino]-1-(p-hydroxyphenyl)-1-ethanol] | < 25 | > 75 |  |  |  |
| CC(=O)N[C@H]1CC[C@@H](CC(C)(C)NC[C@H](O)c2cccnc2C)CC1 [Compound 436] |  |  | < 25 | 50 to 75 |  |
| CC(C)(CC[C@H]1CC[C@H](C(=O)O)CC1)NC[C@H](O)c1cncc(F)c1 [Compound 343, (1R,4r)-4-{3-[(R)-2-(5-fluoro-3-pyridyl)-2-hydroxyethylamino]-3-methylbutyl} cyclohexanecarboxylic acid] |  |  | < 25 | 25 to 50 |  |
| CCCC12CCC([C@H](O)c3cccc(F)c3)(CC1)N2 [Compound 183, (R)-(m-fluorophenyl)(4-propyl-7-azabicyclo[[2.2.1]]hept-1-yl)methanol] | 25 to 50 | 50 to 75 |  |  |  |
| COC(=O)[C@H]1CC[C@@H](CC(C)(C)NC[C@H](O)c2cncc(F)c2)CC1 [Compound 322, methyl (1S,4s)-4-{2-[(R)-2-(5-fluoro-3-pyridyl)-2-hydroxyethylamino]-2-methylpropyl} cyclohexanecarboxylate] |  |  | < 25 | > 75 |  |

| SMILES | Emax at 10 µM (L6-myotubes [1]; [3]) [%] | Emax at 10 µM (L6-myotubes [2]; [4]) [%] | Emax at 10 µM (L6-myotubes [1]; [5]) [%] | Emax at 10 µM (L6-myotubes [2]; [6]) [%] | further results |
| --- | --- | --- | --- | --- | --- |
| Cc1c(F)cccc1[C@@H](O)CNC(C)(C)C [Compound 150, (R)-2-(tert-butylamino)-1-(3-fluoro-2-tolyl)-1-ethanol] | 25 to 50 | > 75 |  |  |  |
| CC(C)(NC[C@H](O)c1cncc(F)c1)[C@H]1CC[C@H](OCC(=O)O)CC1 [Compound 419] |  |  | < 25 | 50 to 75 |  |
| CC1(C)CC[C@H]([C@H](O)c2cccc(O)c2)N1 [Compound 112, m-{(R)-[(R)-5,5-dimethyl-2-pyrrolidinyl] hydroxymethyl}phenol] | < 25 | > 75 |  |  |  |
| O[C@H](c1cccc(F)c1)[C@H]1CC[C@H](Cc2ccc(Cl)cc2)N1 [Compound 393, (R)-{(2R,5R)-5-[(p-chlorophenyl)methyl]-2-pyrrolidinyl}(m-fluorophenyl)methanol] |  |  | < 25 | > 75 |  |
| CC1(C)CC[C@H]([C@H](O)c2cncc(F)c2)N1 [Compound 157, (R)-[(R)-5,5-dimethyl-2-pyrrolidinyl](5-fluoro-3-pyridyl)methanol] | < 25 | > 75 |  |  |  |
| O[C@@H](CNCC[C@H]1CC[C@@H](O)CC1)c1cccc(F)c1 [Compound 297, (R)-1-(m-fluorophenyl)-2-{2-[(1s,4S)-4-hydroxycyclohexyl]ethylamino}-1-ethanol] |  |  | < 25 | 50 to 75 |  |
| CCC[C@@H]1CC[C@H]([C@H](O)c2cncc(F)c2)N1 [Compound 161] |  |  |  |  | Biological example 3 (CAMP) (L6-myotubes [1]; [3]): − (if it less than 25% it is denoted with −); Biological example 2 (GU) (L6-myotubes [2]; [4]): + (if it is between 50 and 25% it is denoted with +) |
| CC12CC(C1)[C@H]([C@@H](O)c1cccc(N)c1F)N2 [Compound 243, (S)-{(R)-1-methyl-2-azabicyclo[[2.1.1]]hex-3-yl}(3-amino-2-fluorophenyl)methanol] |  |  | < 25 | 50 to 75 |  |
| CC12CC(C1)[C@@H]([C@H](O)c1ccccc1F)N2 [Compound 213] |  |  | < 25 | > 75 |  |
| CCCC(C)NCC(O)c1cc(Cl)c(N)c(C(F)(F)F)c1 (stereo not shown) [Compound 33, 1-[4-amino-3-chloro-5-(trifluoromethyl)phenyl] -2-(1-methylbutylamino)-1-ethanol] | > 75 | 50 to 75 |  |  |  |
| CO[C@H]1CC[C@H](CC(C)(C)NC[C@H](O)c2cncc(F)c2)CC1 [Compound 250, (R)-2-{1,1-dimethyl-2-[(1r,4R)-4-methoxycyclohexyl]ethylamino}-1-(5-fluoro-3-pyridyl)-1-ethanol] |  |  | < 25 | 50 to 75 |  |
| O[C@@H](c1cccc(F)c1)C12CCC(COc3ccc(Cl)cc3)(CC1)N2 [Compound 440] |  |  | < 25 | > 75 |  |
| CS(=O)(=O)N[C@H]1CC[C@@H](C[C@@H]2CC[C@H]([C@H](O)c3cccc(F)c3)N2)CC1 [Compound 510, (R)-[(2R,5S)-5-{[(1s,4R)-4-(mesylamino)cyclohexyl]methyl}-2-pyrrolidinyl](m-fluorophenyl)methanol] |  |  | < 25 | > 75 |  |
| CO[C@H]1CC[C@@H](CC(C)(C)NC[C@H](O)c2cccc(F)c2)CC1 [Compound 247, (R)-2-{1,1-dimethyl-2-[(1s,4S)-4-methoxycyclohexyl]ethylamino}-1-(m-fluorophenyl)-1-ethanol] |  |  | < 25 | > 75 |  |
| CC1(C)CC[C@H]([C@@H](O)c2cccc(O)c2)N1 [Compound 111, m-{(S)-[(R)-5,5-dimethyl-2-pyrrolidinyl] hydroxymethyl}phenol] | < 25 | 50 to 75 |  |  |  |
| CCCC(C)NCC(O)c1ccc(O)cc1 (stereo not shown) [Compound 8, 1-(p-hydroxyphenyl)-2-(1-methylbutylamino)-1-ethanol] | 25 to 50 | 50 to 75 |  |  |  |
| CC12CCC([C@@H](O)c3cccc(Cl)c3)(CC1)N2 [Compound 196, (S)-(m-chlorophenyl)(4-methyl-7-azabicyclo[[2.2.1]]hept-1-yl)methanol] | < 25 | 25 to 50 |  |  |  |
| CN(C)C(=O)N[C@H]1CC[C@H](CC(C)(C)NC[C@H](O)c2cccc(F)c2)CC1 [Compound 430, (R)-2-{1,1-dimethyl-2-[(1r,4R)-4-(3,3-dimethylureido)cyclohexyl]ethylamino}-1-(m-fluorophenyl)-1-ethanol] |  |  | 50 to 75 | > 75 |  |
| CC1(C)C[C@H]([C@@H](O)c2cccc(Cl)c2)N1 [Compound 233, (S)-[(R)-4,4-dimethyl-2-azetidinyl](m-chlorophenyl)methanol] |  |  | < 25 | < 25 |  |
